{"source": "a compilation of properties of binary mixtures (doi:10.1016/j.molliq.2016.05.033)", "test": "xn = mol fraction of the nth substance listed", "conditions": "101 kPa"}
{"compound": "CNc1ccccc1", "note": "+ CCCC[n+]1ccn(C)c1.F[B-](F)(F)F", "values": [{"measurement": "speed of sound", "setting": "293.15 K, x1 = 0.0974", "result": 1578.7, "unit": "m/s"}, {"measurement": "speed of sound", "setting": "293.15 K, x1 = 0.3968", "result": 1584.9, "unit": "m/s"}, {"measurement": "speed of sound", "setting": "293.15 K, x1 = 0.592", "result": 1594.9, "unit": "m/s"}, {"measurement": "speed of sound", "setting": "293.15 K, x1 = 0.697", "result": 1602.1, "unit": "m/s"}, {"measurement": "speed of sound", "setting": "293.15 K, x1 = 0.7972", "result": 1601.6, "unit": "m/s"}, {"measurement": "speed of sound", "setting": "293.15 K, x1 = 0.8999", "result": 1594.2, "unit": "m/s"}, {"measurement": "speed of sound", "setting": "293.15 K, x1 = 1", "result": 1582.7, "unit": "m/s"}, {"measurement": "speed of sound", "setting": "303.15 K, x1 = 0.0974", "result": 1554.2, "unit": "m/s"}, {"measurement": "speed of sound", "setting": "303.15 K, x1 = 0.3968", "result": 1560.6, "unit": "m/s"}, {"measurement": "speed of sound", "setting": "303.15 K, x1 = 0.5009", "result": 1562, "unit": "m/s"}, {"measurement": "speed of sound", "setting": "303.15 K, x1 = 0.592", "result": 1566.3, "unit": "m/s"}, {"measurement": "speed of sound", "setting": "303.15 K, x1 = 0.697", "result": 1571.4, "unit": "m/s"}, {"measurement": "speed of sound", "setting": "303.15 K, x1 = 0.7972", "result": 1570, "unit": "m/s"}, {"measurement": "speed of sound", "setting": "303.15 K, x1 = 0.8999", "result": 1559.5, "unit": "m/s"}, {"measurement": "speed of sound", "setting": "313.15 K, x1 = 0.2093", "result": 1531.6, "unit": "m/s"}, {"measurement": "speed of sound", "setting": "313.15 K, x1 = 0.2979", "result": 1532.2, "unit": "m/s"}, {"measurement": "speed of sound", "setting": "313.15 K, x1 = 0.3968", "result": 1534.8, "unit": "m/s"}, {"measurement": "speed of sound", "setting": "313.15 K, x1 = 0.592", "result": 1537.9, "unit": "m/s"}, {"measurement": "speed of sound", "setting": "313.15 K, x1 = 0.697", "result": 1540.1, "unit": "m/s"}, {"measurement": "speed of sound", "setting": "313.15 K, x1 = 0.7972", "result": 1537.7, "unit": "m/s"}, {"measurement": "speed of sound", "setting": "313.15 K, x1 = 0.8999", "result": 1524.9, "unit": "m/s"}, {"measurement": "speed of sound", "setting": "313.15 K, x1 = 1", "result": 1511.6, "unit": "m/s"}, {"measurement": "speed of sound", "setting": "323.15 K, x1 = 0.0974", "result": 1507.2, "unit": "m/s"}, {"measurement": "speed of sound", "setting": "323.15 K, x1 = 0.2093", "result": 1507.9, "unit": "m/s"}, {"measurement": "speed of sound", "setting": "323.15 K, x1 = 0.2979", "result": 1508.4, "unit": "m/s"}, {"measurement": "speed of sound", "setting": "323.15 K, x1 = 0.3968", "result": 1509.7, "unit": "m/s"}, {"measurement": "speed of sound", "setting": "323.15 K, x1 = 0.5009", "result": 1510.5, "unit": "m/s"}, {"measurement": "speed of sound", "setting": "323.15 K, x1 = 0.7972", "result": 1504.7, "unit": "m/s"}, {"measurement": "speed of sound", "setting": "323.15 K, x1 = 1", "result": 1476.4, "unit": "m/s"}]}
{"compound": "CCCC[n+]1ccn(C)c1.F[B-](F)(F)F", "note": "+ CNc1ccccc1", "values": [{"measurement": "speed of sound", "setting": "293.15 K, x2 = 0", "result": 1577.5, "unit": "m/s"}, {"measurement": "speed of sound", "setting": "303.15 K, x2 = 0", "result": 1553.1, "unit": "m/s"}, {"measurement": "speed of sound", "setting": "313.15 K, x2 = 0", "result": 1529.6, "unit": "m/s"}, {"measurement": "speed of sound", "setting": "323.15 K, x2 = 0", "result": 1506.8, "unit": "m/s"}]}
